Data on 18 molecules can be found in patent US9133167B2, “Antibacterial quinoline derivatives” (JANSSEN PHARMACEUTICA NV, priority 2012, dated 2015).

SMILES strings stand for the structures. ≈ marks a conversion by molar mass, not a printed value. Where “and” joins values, the source holds several entries; their conditions need not be identical. Identical values can stand only once. Counter-ions that a name gives are not always drawn.

The test system of series [1] is Staphylococcus aureus (ATCC29213). The experiment in a line: Microtitre plate assay, IC90 for bacterial growth, Staphylococcus aureus strain. Particulars: 90% inhibitory concentration for bacterial growth, 24 hours at 37° C.; for IC90: read-out: IC90 (μg/ml) STA B29213. In kind it is cell-based. On the procedure: D.2. In-Vitro Method for Testing Compounds for Anti-Bacterial Activity Against a Non-Mycobacterial Strain
Preparation of Bacterial Suspensions for Susceptibility Testing:
The bacteria used in this study were grown overnight in flasks containing 100 ml Mueller-Hinton Broth (Becton Dickinson—cat. no. 275730) in sterile de-ionized water, with shaking, at 37° C. Stocks (0.5 ml/tube) were stored at −70° C. until use. Bacteria titrations were performed in microtiter plates to detect the TCID50, in which TCID50 represents the dilution that gives rise to bacterial growth in 50% of inoculated cultures. In general, an inoculum level of approximately 100 TCID50 was used for susceptibility testing.
Anti Bacterial Susceptibility Testing: IC90 Determination
Flat-bottom, sterile 96-well plastic microtiter plates were filled with 180 μl of sterile deionized water, supplemented with 0.25% BSA. Subsequently, stock solutions (7.8× final test concentration) of compounds were added in 45 μl volumes in column 2 Serial five-fold dilutions (45 μl in 180 μl) were made directly in the microtiter plates from column 2 to reach column 11. Untreated control samples with (column 1) and without (column 12) inoculum were included in each microtiter plate. Depending on the bacteria type, approximately 10 to 60 CFU per well of bacteria inoculum (100 TCID50), in a volume of 100 μl in 2.8× Mueller-Hinton broth medium, was added to the rows A to H, except column 12. The same volume of broth medium without inoculum was added to column 12 in row A to H. The cultures were incubated at 37° C. for 24 hours under a normal atmosphere (incubator with open air valve and continuous ventilation). At the end of incubation, one day after inoculation, the bacterial growth was quantitated fluorometrically. Therefore resazurin (0.6 mg/ml) was added in a volume of 20 μl to all wells 3 hours after inoculation, and the plates were re-incubated overnight. A change in colour from blue to pink indicated the growth of bacteria. The fluorescence was read in a computer-controlled fluorometer (Cytofluor Biosearch) at an excitation wavelength of 530 nm and an emission wavelength of 590 nm. The % growth inhibition achieved by the compounds was calculated according to standard methods. The IC90 (expressed in μg/ml) was defined as the 90% inhibitory concentration for bacterial growth. The results are shown in Table 7 for an assay using a Staphylococcus aureus strain.

The subject of series [2] is Mycobacterium smegmatis (ATCC607). The series can be described thus: In-vitro anti-bacterial activity against strain M. smegmatis ATCC607 (Alamar Blue growth inhibition). The class given is cell-based. Particulars: 90% inhibitory concentration for bacterial growth, 48 hours at 37° C.; for IC90: Mycolicibacterium smegmatis, read-out: IC90 (μg/ml) MSM 607. On the procedure:
D.1. In-Vitro Method for Testing Compounds for Anti-Bacterial Activity Against Strain M. Smegmatis ATCC607.
Flat-bottom, sterile 96-well plastic microtiter plates were filled with 180 μl of sterile deionized water, supplemented with 0.25% BSA. Subsequently, stock solutions (7.8× final test concentration) of compounds were added in 45 μl volumes to a series of duplicate wells in column 2 so as to allow evaluation of their effects on bacterial growth. Serial five-fold dilutions (45 μl in 180 μl) were made directly in the microtiter plates from column 2 to 11 using a customised robot system (Zymark Corp., Hopkinton, Mass.). Pipette tips were changed after every 3 dilutions to minimize pipetting errors with high hydrophobic compounds. Untreated control samples with (column 1) and without (column 12) inoculum were included in each microtiter plate. Approximately 250 CFU per well of bacteria inoculum, in a volume of 100 in 2.8× Mueller-Hinton broth medium, was added to the rows A to H, except column 12. The same volume of broth medium without inoculum was added to column 12 in row A to H. The cultures were incubated at 37° C. for 48 hours in a humidified 5% CO2 atmosphere (incubator with open air valve and continuous ventilation). At the end of incubation, two days after inoculation, the bacterial growth was quantitated fluorometrically. Therefore Alamar Blue (10×) was added to all wells in a volume of 20 and plates were incubated for another 2 hours at […]
The fluorescence was read in a computer-controlled fluorometer (Cytofluor, Biosearch) at an excitation wavelength of 530 nm and an emission wavelength of 590 nm (gain 30). The percentage growth inhibition achieved by the compounds was calculated according to standard methods and expressed as IC90 […] which defines the 90% inhibitory concentration for bacterial growth.
A general note: Alamar Blue is a resazurin reagent that responds to reducing activity.

A word on the melting point: it is the temperature of the solid-liquid transition. Regarding `O=c1[nH]c2ccc(Br)cc2cc1C(c1ccc2ccccc2c1)C1(O)CCN(Cc2ccccc2)CC1` (centres unmarked) [Compound 80], the melting point is 249 °C. Besides, the IC90 in series [1] was found to be 4.4 µg/mL (≈ 7.95 µM).

`COc1nc2ccc(Br)cc2cc1C(c1ccc(Cl)cc1)C1(O)CCN(Cc2cccc(F)c2)CC1` (centres unmarked) [Compound 17]: the melting point stood at 220 °C. Also, in series [1], the IC90 worked out at 14.3 µg/mL (≈ 25.1 µM). The IC90 in series [2] came to 14.3 µg/mL (≈ 25.1 µM).

`COc1nc2ccc(Br)cc2cc1C(c1ccc(Cl)cc1)C1(O)CCN(C(=N)N)CC1` (centres unmarked) [Compound 25] registered a melting point above 250 °C. Besides, in series [1], the IC90 is 1.59 µg/mL (≈ 3.16 µM). Besides, in series [2], the IC90 came to 6.34 µg/mL (≈ 12.6 µM).

`COc1nc2ccc(C(=O)Nc3cccnc3)cc2cc1C(c1ccc(Cl)cc1)C1(O)CCN(Cc2ccccc2)CC1` (centres unmarked) [Compound 24] returned a melting point of 146 °C. Also, the IC90 in series [1] worked out at 8.38 µg/mL (≈ 14.1 µM). Also, in series [2], the IC90 came out at 7.47 µg/mL (≈ 12.6 µM).

In turn, `CS(=O)(=O)c1ccc2[nH]c(=O)c(C(c3ccccc3)C3(O)CCNCC3)cc2c1` (centres unmarked) (as salt: HCl) [Compound 100] had a melting point above 260 °C.

Turning to `COc1nc2ccc(CO)cc2cc1C(c1ccc(Cl)cc1)C1(O)CCN(Cc2ccccc2)CC1` (centres unmarked) [Compound 22], the melting point came to 196 °C. Further, the IC90 in series [1] was above 16.3 µg/mL. Besides, the IC90 in series [2] stood at 16.3 µg/mL (≈ 32.4 µM).

With `COc1nc2ccccc2cc1C(c1ccccc1)C1(O)CCNCC1` (centres unmarked) [Compound 12], the melting point was determined as 119 °C. In addition, the IC90 in series [1] was above 22 µg/mL.

`OC1(C(c2ccc(Cl)cc2)c2cc3cc(Br)ccc3nc2N2CCOCC2)CCN(CCc2ccccc2)CC1` (centres unmarked) [Compound 1] showed a melting point of 158 °C. Further, the IC90 in series [1] worked out at 6.81 µg/mL (≈ 11 µM).

Turning to `CCn1c(=O)c(C(c2ccc(Cl)cc2)C2(O)CCN(Cc3ccccc3)CC2)cc2cc(-c3cccnc3)ccc21` (centres unmarked) [Compound 3], the melting point came to 172 °C. Further, the IC90 in series [1] was found to be 7.1 µg/mL (≈ 12.6 µM). The IC90 in series [2] is 3.56 µg/mL (≈ 6.31 µM).

On to `O=c1[nH]c2ccc(Br)cc2cc1C(c1ccc(Cl)cc1)C1(O)CCN(Cc2ccccc2)CC1` (centres unmarked) [Compound 10], for which the melting point is 244 °C. Besides, the IC90 in series [1] was determined as 4.27 µg/mL (≈ 7.94 µM).

In the case of `O=c1[nH]c2ccc(-c3cccnc3)cc2cc1C(c1ccc(Cl)cc1)C1(O)CCNCC1` (centres unmarked) [Compound 26], the melting point was > 250 °C and 250 °C. The IC90 in series [1] was above 30.9 µg/mL. Also, in series [2], the IC90 was 3.09 µg/mL (≈ 6.93 µM).

The molecule `COc1nc2ccc(Br)cc2cc1C(c1ccc(SC)cc1)C1(O)CCNCC1` (centres unmarked) [Compound 9] displayed a melting point of 204 °C. The IC90 in series [1] came out at 7.58 µg/mL (≈ 16 µM). Moreover, the IC90 in series [2] is 4.78 µg/mL (≈ 10.1 µM).

The molecule `C=Cc1ccc2nc(OC)c(C(c3ccc(Cl)cc3)C3(O)CCN(Cc4ccccc4)CC3)cc2c1` (centres unmarked) [Compound 11] displayed a melting point of 195 °C. Further, the IC90 in series [1] was above 39.8 µg/mL.

Molecule `CCn1c(=O)c(C(c2ccc(Cl)cc2)C2(O)CCN(Cc3ccccc3)CC2)cc2cc(Br)ccc21` (centres unmarked) [Compound 2] displayed a melting point of 212 °C. Besides, the IC90 in series [1] is 11.3 µg/mL (≈ 19.9 µM). Moreover, the IC90 in series [2] is 3.57 µg/mL (≈ 6.31 µM).

Molecule `COc1nc2ccc(Br)cc2cc1C(c1ccc(C#N)cc1)C1(O)CCN(Cc2ccccc2)CC1` (centres unmarked) [Compound 58] registered a melting point of 220 °C. The IC90 in series [1] is 8.47 µg/mL (≈ 15.6 µM).

`COc1nc2ccc(Br)cc2cc1C(c1ccc(Cl)cc1)C1(O)CCN(C)CC1` (centres unmarked) [Compound 16] showed a melting point of 193 °C. Moreover, in series [1], the IC90 stood at 5.99 µg/mL (≈ 12.6 µM). Besides, in series [2], the IC90 came to 2.39 µg/mL (≈ 5.02 µM).

As to `COc1nc2ccc(C#N)cc2cc1C(c1ccc(Cl)cc1)C1(O)CCN(Cc2ccccc2)CC1` (centres unmarked) [Compound 13], the melting point is 199 °C. Also, the IC90 in series [1] turned out to be 25.6 µg/mL (≈ 51.3 µM).

For `Cl.O=c1[nH]c2ccc(Br)cc2cc1C(c1cccc(Cl)c1)C1(O)CCNCC1` (centres unmarked) [Compound 101], the “IC90 (μg/ml) STA B29213” value in series [1] was above 12.04 µg/mL. In addition, the “IC90 (μg/ml) MSM 607” value in series [2] is 12.04 µg/mL.
